Reference: PMC8405660, “Detection of Borrelia burgdorferi antigens in tissues and plasma during early infection in a mouse model” (Scientific Reports, 2021)
Where no end group is shown, it is not given here.

target: C10-11 mAb; experiment: Competitive ELISA with AChE-labeled C10 peptide on C10-11 mAb; set-up: species or system mouse; settings: read-out: Apparent dissociation constant (Kapp) of C10-11 mAb; concentration of competitor inducing 50% inhibition of binding of AChE-labeled C10 peptide (0.5 EU/mL); mAb 1 ng/mL, overnight at 4 °C; NB means no binding
Protocol: The apparent affinity of anti-C10 peptide mAbs for different variants of C10 peptides and recombinant OspC was measured by competitive ELISA, using goat anti-mouse antibodies (Jackson ImmunoResearch, Cambridgeshire, United Kingdom) coated on the wells of a microtiter plate. A mix of anti-C10 peptide mAb (1 ng/mL), AChE-labeled C10 peptide (0.5 EU/mL) and different concentrations of competitor peptide or recombinant OspC were reacted overnight in the wells at 4 °C.

Row | Sequence | Kd [nM]
1 | PIVAESPKKP [compound 10] | 100
2 | PVMAESPKKP [compound 9] | 125
3 | PVVAEAPKKP [compound 2] | 146
4 | PVVAESPKKP [compound 1, reference compound] | 33
5 | PVVAESPKKT [compound 3] | 60
6 | PVVAESQKKP [compound 7] | 170
7 | PVVAETPKKP [compound 5] | 179
